We go through two molecules from patent US8426387B2, “Treatments for cancer” (priority 2006, dated 2013).

One experiment concerns DU-145. The note with it: 1 mM boric acid. The method, then:
(§1) The relationship between diet and cancer is an active area of investigation. […] Fruits and vegetables are known to be good sources of dietary boron. To explore a possible cellular mechanism for the effect of boron on prostate cancer 1 mM boric acid was added to several cancer cell lines; three human prostate, and for comparison, five human breast cell lines.

The subject of experiment [1] is DU-145 androgen receptor negative human prostate cell line. The procedure: as §1
The test system of experiment [2] is estrogen receptor negative human breast cancer cell lines. The note with it: 1 mM boric acid; two cell lines; MEM supplemented with 10% FBS and 25 mM HEPES. The procedure:
as §1

A further experiment concerns DU-145 cell line. As to conditions: 1 mM boron. The method, then:
as §1

The test system of experiment [3] is a breast cancer cell line. As to conditions: 1 mM boron. The method, then: as §1
Experiment [4] deals with androgen receptor positive and receptor negative human prostate cancer cell lines. The note with it: 1 mM boric acid; RPMI1640 media. The method, then:
as §1

Experiment [5] concerns estrogen receptor positive cell lines. Put plainly: cells. The method, then:
as §1

Experiment [6] deals with T1, DU145 cell surface-bound uPA (Homo sapiens, UniProt P00749).
T1 construct: endogenous in cells; host or cells: DU145 prostate carcinoma cells
As to conditions: DU145 cells; read-out: Ki value in cell surface-mediated plasminogen activation; cited from earlier work.

Turning to `OB(O)O` [boric acid], the “cell cycle block or apoptosis” value in the experiment on DU-145 was “does not block the cell cycle or induce apoptosis”. Besides, in experiment [1] (1 mM boric acid, supplemented RPMI media), the growth entry is on record as “completely arrested”. The “reversibility of growth inhibition” value in experiment [1] (boric acid removed on Day 3, cell growth resumed by Day 6) was “reversible”. In addition, the growth inhibition result in experiment [2] is on record as “did not show growth inhibition”; in experiment [5] (1 mM boric acid, two estrogen receptor positive cell lines, MEM media or RPMI1640, supplemented), “failed to exhibit growth inhibition”. Also, the apoptosis or necrosis result (with DU-145 cell line; in experiment [3]) was “does not induce apoptosis or necrosis” in each case. The growth response entry in experiment [4] is given as “failed to show a response”. Further, the inhibition at 1000 µM in experiment [5] (Homo sapiens, 216 h, read-out: inhibition in growth) came to 20%. For the same molecule, the “apoptosis by flow cytometry” value in experiment [5] (third estrogen receptor positive breast cancer cell line, preliminary results) is reported as “may be inducing apoptosis”.

B1: rMaspin(i): Purified recombinant maspin produced in baculovirus-infected Spodoptera frugiperda Sf9 insect cells (protein, UniProt P36952 1-375, looked up)
Serpin B5: MDALQLANSAFAVDLFKQLCEKEPLGNVLFSPICLSTSLSLAQVGAKGDTANEIGQVLHFENVKDVPFGFQTVTSDVNKLSSFYSLKLIKRLYVDKSLNLSTEFISSTKRPYAKELETVDFKDKLEETKGQINNSIKDLTDGHFENILADNSVNDQTKILVVNAAYFVGKWMKKFSESETKECPFRVNKTDTKPVQMMNMEATFCMGNIDSINCKIIELPFQNKHLSMFILLPKDVEDESTGLEKIEKQLNSESLSQWTNPSTMANAKVKLSIPKFKVEKMIDPKACLENLGLKHIFSEDTSDFSGMSETKGVALSNVIHKVCLEITEDGGDSIEVPGARILQHKDELNADHPFIYIIRHNKTRNIIFFGKFCSP
modifications: recombinant, Sf9 baculovirus-expressed
notes: Purified recombinant maspin produced in baculovirus-infected Spodoptera frugiperda Sf9 insect cells
In the case of B1, the inhibition constant (Ki) in experiment [6] is 20 nM.

One may read the inhibition as the relative decrease from the control value, in per cent. By Ki is commonly meant a dissociation constant, usually derived from enzyme kinetics or from competition with a known ligand.
